These results are taken from article PMC12973313 (Chemical Science, 2026).

The conditions of data set [1]: 1H NMR DOSY, DMSO-d6 0.5% H2O, 112 mM, 298 K; cited from earlier work.
Details of data set [2]: method as in PMID 29633393. Conditions: H2O 5% EtOH, cited from earlier work.
Data set [3] is described as follows: Plasma protein binding, equilibrium dialysis. In kind it is in vitro ADME, human. As for the experimental part:
This allows an assessment of the free drug concentration available to distribute into the tissues and interact with the target. The extent to which a compound binds to the constituents of blood plasma can influence drug distribution. […] page 10: In vitro Absorption, Distribution and Metabolism studies General note: These studies were performed by Contract Research Organisation (CRO) Pharmaron. The methodology provided within the ESI is published within the express permission of this organisation. The percentage of a compound recovered during the […] limitations such as unintended potential non-specific binding events to experimental equipment, solubility issues, etc. Protein Binding measurements in human plasma by using equilibrium dialysis: The fraction unbound in human plasma (P-KB, Ltd People's hospital of Shandong) was measured using 96-well Equilibrium Dialysis Plate (HTDialysis LLC, Gales Ferry, CT). Human plasma containing 5 μM test compound was dialysed against dialysis buffer (PBS, pH 7.4) with initial samples taken to allow for assessment of plasma stability and recovery before the plate was incubated for 6 hours at 37°C at 5% CO2. Samples were removed at 6 hours, and all samples were matrix matched and quenched with acetonitrile containing internal standard. Samples were centrifuged at 3,220g for 30 minutes to precipitate protein and enable sampling of supernatant prior to appropriate dilution for liquid chromatography mass-spectrometry (LC-MS/MS) analysis. Samples were analysed using a Shimadzu Nexera LC Binary Gradient LC-30AD (Shimadzu Inc, Kyoto), coupled to a Sciex 6500+ (AB Inc., Illinois). Separation was achieved using a XSelect HSS T3 (2.5μm, 2.1 x 50 mm) (Waters Ltd., Wilmslow) column at a temperature of 40°C and a binary mobile phase gradient at a flow rate of 0.8 mL/min. Initial LC conditions comprised of […] was ramped to 98% B at 0.5 min, held for 0.4 min and then immediately returned to initial conditions. Sample analysis was by electrospray ionisation in combined with multiple reaction monitoring in positive ionisation mode. The ionisation voltage was +5500 V. Kinetic Solubility Determination in PBS pH 7.4: The stock solutions of test and control compounds were prepared in DMSO at 10 mM. From […] These solutions were then shaken at 1100 rpm for 2 hours at 25°C. Following incubation, the samples were filtered using a vacuum manifold. The filtrate was analysed and quantified against a standard of known concentration using liquid chromatography mass- spectrometry (LC-MS/MS). Samples were analysed using a Shimadzu Nexera LC Binary Gradient LC-30AD (Shimadzu Inc, Kyoto), coupled to a Sciex 4500 mass spectrometer (AB Inc., Illinois). Separation of […] Wilmslow) at a temperature of 40°C and a binary mobile phase gradient at a flow rate of 0.8 mL/min. […] This was ramped to 98% solvent B at 0.5 minutes, held for 0.4 minutes and then immediately returned to initial conditions. Sample analysis was by electrospray ionisation combined with multiple reaction monitoring in positive ion mode. The ionspray voltage was […]. 10

Where two headings read alike, the source gives them in different places.

For the compound `O=C(O)CNC(=O)Nc1ccc(C(F)(F)F)cc1` [SSA 1], the “dH (nm)” value in data set [1] is 1.3 (ref. [30]) nm. Besides, the “CAC (mM)” value in data set [2] (approx. 291 K) was 11.2 (ref. [30]) mM. Also, the “Surface tension (mN m^-1)” value in data set [2] is 39.33 (ref. [30]) mN m^−1.
With `O=C(Nc1ccc(C(F)(F)F)cc1)N[C@H](Cc1ccccc1)C(=O)O` [SSA 9], in data set [3] (human plasma, 5 µM, 6 hours, 37 °C), the “% Bound” value worked out at 99.73%. Besides, the “% Unbound” value in data set [3] (human plasma, 6 hours) was determined as 0.3%. Further, in data set [3] (human plasma, 6 hr), the “% Stability / % Remaining at 6 hr” value is recorded as 98.85%. The “% Recovery” value in data set [3] (human plasma, after 6 hours) is reported as 98.3%. Besides, the recovery at 6 h, 5 µM in data set [3] (human, human plasma, pH 7.4, human plasma, after 6 hours) amounted to 98.3%. In data set [3] (human, plasma, human plasma, 6 hr, read-out: % Stability / % Remaining at 6 hr), the remaining at 6 h, 5 µM worked out at 98.9%. Also, the fraction unbound at 6 h, 5 µM was 0.003 in data set [3] (human, plasma, pH 7.4, human plasma, 5 µM, 6 hours, 37 °C, read-out: % Bound (converted)) and 0.0027 in data set [3] (human, plasma, pH 7.4, human plasma, 6 hours, read-out: % Unbound).
